Measured values taken from ChEMBL document CHEMBL4138138, “Addressing the Metabolic Stability of Antituberculars through Machine Learning” (ACS Med Chem Lett, 2017).
In brackets after ≈: the same amount, converted by molar mass.

Legend:
[1] = Half life in mouse liver microsomes; format: ADME, microsome
[2] = Intrinsic clearance in mouse liver microsomes; format: ADME, microsome; settings: read-out: CLH
[3] = system: Mycobacterium tuberculosis; test: Antimycobacterial activity against Mycobacterium tuberculosis H37Rv measured after 1 week by resazurin assay; format: functional; settings: 168 h
[4] = Cytotoxicity against African green monkey Vero cells assessed as reduction in cell viability after 72 hrs by MTS/PMS assay; format: cell-based; settings: chlorocebus sabaeus
[5] = Selectivity index, ratio of CC50 for African green monkey Vero cells to MIC for Mycobacterium tuberculosis H37Rv; format: toxicity; settings: read-out: Selectivity Index

Compound `CC(C)(C)C1CCc2c(sc3nc(SCc4ccc(C(=O)O)cc4[N+](=O)[O-])nc(N)c23)C1` (configuration not stated) has a half-life [1] of 120 min, a microsomal CLint [2] of 5.8 µL/min/mg and an MIC [3] of 12.5 to 25 µg/mL (≈ 26.4 to 52.9 µM). It also gave a CC50 at 72 h [4] greater than 50 µg/mL.
`COc1ccc([N+](=O)[O-])cc1CSc1nc(N)c2c3c(sc2n1)CC(C(C)(C)C)CC3` (configuration not stated) showed a half-life [1] of 87.7 min, a microsomal CLint [2] of 7.9 µL/min/mg and an MIC [3] greater than 200 µg/mL. For the same compound, the CC50 at 72 h [4] was 12.5 µg/mL (≈ 27.3 µM).
Work on `CC(C)(C)C1CCc2c(sc3nc(SCc4cccc([N+](=O)[O-])c4)nc(N)c23)C1` (configuration not stated) yielded a half-life [1] of 47.5 min, a microsomal CLint [2] of 14.6 µL/min/mg and an MIC [3] of 10 µg/mL (≈ 23.3 µM). For the same compound, the CC50 at 72 h [4] was greater than 200 µg/mL and the selectivity ratio [5] was greater than 20.
With `CC(C)(C)C1CCc2c(sc3nc(SCc4ccc(C(=O)O)cc4)nc(N)c23)C1` (configuration not stated) the half-life [1] was 95 min, the microsomal CLint [2] was 7.3 µL/min/mg and the MIC [3] was 25 to 50 µg/mL (≈ 58.5 to 117 µM). The CC50 at 72 h [4] was 50 µg/mL (≈ 117 µM).
In the case of `Cc1cccc(CSc2nc(N)c3c4c(sc3n2)CC(C(C)(C)C)CC4)n1` (configuration not stated), the half-life [1] is reported as 17 min, the microsomal CLint [2] is reported as 40.8 µL/min/mg and the MIC [3] is reported as greater than 200 µg/mL. It also gave a CC50 at 72 h [4] of 25 µg/mL (≈ 62.7 µM).
`CC(C)(C)C1CCc2c(sc3nc(SCc4ccnn4C4CCCCO4)nc(N)c23)C1` (configuration not stated) showed a half-life [1] of 60.3 min, a microsomal CLint [2] of 11.5 µL/min/mg and an MIC [3] of 25 µg/mL (≈ 54.6 µM). The CC50 at 72 h [4] was 6.2 µg/mL (≈ 13.5 µM).
Compound `Cc1ccc(CSc2nc(N)c3c4c(sc3n2)CC(C(C)(C)C)CC4)o1` (configuration not stated) has a half-life [1] of 19.7 min, a microsomal CLint [2] of 35.1 µL/min/mg and an MIC [3] of 200 µg/mL (≈ 516 µM). The CC50 at 72 h [4] was 3.1 µg/mL (≈ 8 µM).
For `Cc1nc(CSc2nc(N)c3c4c(sc3n2)CC(C(C)(C)C)CC4)sc1C` (configuration not stated), the half-life [1] was 21.7 min, the microsomal CLint [2] was 31.9 µL/min/mg and the MIC [3] was 100 to 200 µg/mL (≈ 239 to 478 µM). It also gave a CC50 at 72 h [4] of 1.6 µg/mL (≈ 3.82 µM).
Work on `CC(C)(C)C1CCc2c(sc3nc(SCc4nccs4)nc(N)c23)C1` (configuration not stated) yielded a half-life [1] of 66.6 min.
For `CCOC(=O)CSc1nc(N)c2c3c(sc2n1)CC(C(C)(C)C)CC3` (configuration not stated), the half-life [1] was less than 1 min, the microsomal CLint [2] was greater than 1390 µL/min/mg and the MIC [3] was 0.19 to 0.38 µg/mL (≈ 0.501 to 1 µM). It also gave a CC50 at 72 h [4] of 45 µg/mL (≈ 119 µM) and a selectivity ratio [5] of 120 to 240.
Work on `CC(C)(C)C1CCc2c(sc3nc(SCc4cc([N+](=O)[O-])ccc4O)nc(N)c23)C1` (configuration not stated) yielded a half-life [1] of 58.2 min, a microsomal CLint [2] of 11.9 µL/min/mg and an MIC [3] of 200 µg/mL (≈ 450 µM). For the same compound, the CC50 at 72 h [4] was 50 µg/mL (≈ 112 µM).
Compound `CC(C)(C)C1CCc2c(sc3nc(SCc4ccc5c(c4)OCO5)nc(N)c23)C1` (configuration not stated) has a half-life [1] of 64.2 min, a microsomal CLint [2] of 10.8 µL/min/mg and an MIC [3] greater than 200 µg/mL. The CC50 at 72 h [4] was greater than 50 µg/mL.
`Cc1ccc(CSc2nc(N)c3c4c(sc3n2)CC(C(C)(C)C)CC4)s1` (configuration not stated) gave a half-life [1] of 31.8 min, a microsomal CLint [2] of 21.8 µL/min/mg and an MIC [3] greater than 200 µg/mL. It also gave a CC50 at 72 h [4] of 12.5 µg/mL (≈ 31 µM).
In the case of `NNC(=O)c1ccncc1` [ISONIAZID], the MIC [3] is reported as 0.039 µg/mL (≈ 0.284 µM).
For `Cc1cc(CSc2nc(N)c3c4c(sc3n2)CC(C(C)(C)C)CC4)no1` (configuration not stated), the half-life [1] was 19 min.
Work on `Cn1nccc1CSc1nc(N)c2c3c(sc2n1)CC(C(C)(C)C)CC3` (configuration not stated) yielded a half-life [1] of 60.8 min, a microsomal CLint [2] of 11.4 µL/min/mg and an MIC [3] of 10 µg/mL (≈ 25.8 µM). For the same compound, the CC50 at 72 h [4] was 100 µg/mL (≈ 258 µM) and the selectivity ratio [5] was 10.
Compound `CC(C)(C)C1CCc2c(sc3nc(SCc4ccc([N+](=O)[O-])cc4)nc(N)c23)C1` (configuration not stated) has a half-life [1] of 34.3 min, a microsomal CLint [2] of 20.1 µL/min/mg and an MIC [3] greater than 200 µg/mL. It also gave a CC50 at 72 h [4] greater than 50 µg/mL.
